Laboratory results reported in PMC7006908 (PLoS ONE, 2020).
Where “and” joins values, the source holds several entries; their conditions need not be identical. Equal entries are not always repeated. Where two headings read alike, the source gives them in different places.

How the values were obtained:
[1] = LC-MS/MS quantification of Cmin in plasma samples from breast cancer patients (clinical study CRO-2018-83); format: in vivo, human; settings: for concentration at 15 h / concentration at 30 h: human, plasma, oral; for concentration at 15 h: patient 7, sample 9, PALBO 125 mg/day; for concentration at 30 h: patient 8, sample 10, RIBO 600 mg/day + LETRO 2.5 mg/day
Experimental: Preparation of calibration curve and QCs samples was conducted through the following steps: 1) 5 μL of working solutions were added to 95 μL of blank human plasma (dilution 1:20) and vortexed for 10 s; 2) a 10 μL-aliquot of this mix was added with 80 μL of cold IS working solution (see “Standard solutions preparation” section), vortexed and then centrifuged for 15 min at 16200 g and 4°C; 3) 70 μL of the supernatant were transferred to a polypropylene tube for the following analysis. […] The preparation of patients’ samples was conducted as following: patient plasma was thawed at room temperature, vortexed for 10 s and centrifuged, for 10 min, at 3000 g and 4°C; 10 μL of plasma was then treated according to steps 2) and 3).
The HPLC system was a SIL-20AC XR auto-sampler and LC-20AD UFLC XR pumps (Shimadzu, Tokyo, Japan). The mobile phases (MP) consisted of ultrapure water with 0.1% HCOOH (phase A) and methanol/isopropanol (9:1, v/v) with 0.1% HCOOH (phase B). The chromatographic separation was obtained on the Luna Omega Polar C18 column ([…], 100 Å, 50 x 2.1 mm) coupled with a Security Guard Cartridge (Polar, C18, 4 x 2.0 mm), both provided by Phenomenex (Castel Maggiore (BO), Italy). The mass spectrometry system used for the detection was an API 4000 triple quadrupole (AB SCIEX, Massachusetts, USA) with a TurboIonSpray source operating in positive ion mode. To optimize source and compound dependent parameters, solutions of each analyte at the concentration of 100 ng/mL were used with a flow rate of 20 μL/min. Data were processed with Analyst 1.6.3 and the quantification of the peaks was done with MultiQuant 2.1 (software package AB SCIEX).
The exclusion criteria were to be non-collaborative and/or unreliable patients and refusal of informed consent. Patients were asked to periodically (every two months) collect plasma samples for the estimation of PALBO or RIBO and/or LETRO Cmin during their therapy treatment.
Plasma was obtained immediately by centrifugation of the blood samples at 3000 g for 10 min at 4°C. Then the obtained plasma was split into two independent aliquots and stored at -80°C in two different freezers.
At present, each of the 10 patients’ samples collected were quantified in 2 separate runs during 2 different working days, to further assess the reproducibility of the proposed method. In fact, as recently introduced in the last version of the FDA guideline, incurred samples re-analysis (ISR) is necessary to show the reliability of the reported analyte concentrations obtained with a bioanalytical method. ISR is conducted by repeating the analysis of a subset of patients’ samples in separate runs. The two analyses can be considered equivalent if the percentage difference [expressed as: (repeat-original)*100/mean] between the first and the second concentration measured is within ±20% for at least 67% of the samples [23, 24].

[2] = Bench-top stability in human plasma, 4 h at room temperature; format: in vitro ADME; settings: for Acc. %, T = 4h (RT): % of nominal
Experimental: (§1) Stability tests were conducted using QCs prepared in triplicate at each concentration (L, M, H): bench-top stability was investigated after 4 h at room temperature; stability of the deproteinized QCs was evaluated in autosampler set at 4 °C re-analysing the samples 24, 48, and 72 h after the first injection; freeze/thaw stability was assessed by analysing three freshly prepared aliquots of each QCs concentration, and then again after one and two freeze/thaw cycles.

[3] = Stability of deproteinized QCs in autosampler at 4 °C; format: physicochemical; settings: for Acc. %, T = 72 h in autosampler (4°C): % of nominal
Experimental: as §1

[4] = Long term stability in human plasma at -80°C; format: in vitro ADME; settings: for Acc. %, stored at -80ºC over 2 months (plasma): % of nominal
[5] = Long term stability of working solutions in methanol at -20°C; format: physicochemical; settings: for Acc. %, stored at -20ºC over 2 months (methanol): % of nominal
[6] = cited from earlier work
[7] = design: method as in PMID 29862467; settings: exposure-efficacy analysis in patients; cited from earlier work
[8] = plasma QC high: nominal 200.00 PALBO / 8000.00 RIBO / 400.00 LETRO ng/mL
[9] = plasma QC low: nominal 0.50 PALBO / 20.00 RIBO / 1.00 LETRO ng/mL
[10] = plasma QC medium: nominal 20.00 PALBO / 800.00 RIBO / 40.00 LETRO ng/mL
[11] = deproteinized QC high: nominal 200.00 PALBO / 8000.00 RIBO / 400.00 LETRO ng/mL
[12] = deproteinized QC low: nominal 0.50 PALBO / 20.00 RIBO / 1.00 LETRO ng/mL
[13] = deproteinized QC medium: nominal 20.00 PALBO / 800.00 RIBO / 40.00 LETRO ng/mL
[14] = QC high: nominal 200.00 PALBO / 8000.00 RIBO / 400.00 LETRO ng/mL
[15] = QC low: nominal 0.50 PALBO / 20.00 RIBO / 1.00 LETRO ng/mL
[16] = QC medium: nominal 20.00 PALBO / 800.00 RIBO / 40.00 LETRO ng/mL

## N#Cc1ccc(C(c2ccc(C#N)cc2)n2cncn2)cc1 [LETRO, letrozole]
[1]; LETRO 2.5 mg/day, last pill intake 15 h before sampling, read-out: I quantif. plasma concentration (Cmin)
  concentration at 15 h: 0.0028 µg/mL
[1]; LETRO 2.5 mg/day, reanalysis in second run, read-out: II quantif. plasma concentration (Cmin)
  concentration at 15 h: 0.0029 µg/mL
[1]; 30 h from last pills intake, read-out: I quantif. plasma concentration (Cmin)
  concentration at 30 h: 0.0468 µg/mL
[1]; reanalysis in second run, read-out: II quantif. plasma concentration (Cmin)
  concentration at 30 h: 0.0469 µg/mL
[1]; patient 6, sample 8, PALBO 125 mg/day, LETRO 2.5 mg/day, reanalysis in second run
  II quantif. plasma concentration (Cmin): 0.0678 µg/mL
[2]; [8]
  Mean ± SD measured concentration, T = 4h (RT): 372.54 ± 24.58 ng/mL
  Acc. %, T = 4h (RT): 93.1%
[2]; [9]
  Mean ± SD measured concentration, T = 4h (RT): 0.88 ± 0.06 ng/mL
  Acc. %, T = 4h (RT): 88.2%
[2]; [10]
  Mean ± SD measured concentration, T = 4h (RT): 37.95 ± 1.78 ng/mL
  Acc. %, T = 4h (RT): 94.9%
[3]; [11]
  Mean ± SD measured concentration, T = 72 h in autosampler (4°C): 426.23 ± 4.43 ng/mL
  Acc. %, T = 72 h in autosampler (4°C): 106.6%
[3]; [12]
  Mean ± SD measured concentration, T = 72 h in autosampler (4°C): 0.94 ± 0.07 ng/mL
  Acc. %, T = 72 h in autosampler (4°C): 93.9%
[3]; [13]
  Mean ± SD measured concentration, T = 72 h in autosampler (4°C): 44.45 ± 0.19 ng/mL
  Acc. %, T = 72 h in autosampler (4°C): 111.1%
[4]; [14]
  Mean ± SD measured concentration, stored at -80ºC over 2 months (plasma): 386.66 ± 6.61 ng/mL
  Acc. %, stored at -80ºC over 2 months (plasma): 96.7%
[4]; [15]
  Mean ± SD measured concentration, stored at -80ºC over 2 months (plasma): 0.88 ± 0.01 ng/mL
  Acc. %, stored at -80ºC over 2 months (plasma): 88.3%
[4]; [16]
  Mean ± SD measured concentration, stored at -80ºC over 2 months (plasma): 39.58 ± 0.90 ng/mL
  Acc. %, stored at -80ºC over 2 months (plasma): 99.0%
[5]; [14]
  Mean ± SD measured concentration, stored at -20ºC over 2 months (methanol): 413.47 ± 6.07 ng/mL
  Acc. %, stored at -20ºC over 2 months (methanol): 103.4%
[5]; [15]
  Mean ± SD measured concentration, stored at -20ºC over 2 months (methanol): 1.05 ± 0.03 ng/mL
  Acc. %, stored at -20ºC over 2 months (methanol): 105.1%
[5]; [16]
  Mean ± SD measured concentration, stored at -20ºC over 2 months (methanol): 44.12 ± 1.25 ng/mL
  Acc. %, stored at -20ºC over 2 months (methanol): 110.3%
[6]; ref 11 (Beer et al.)
  LETRO mean plasma concentration (±SD): 107.0 ng/mL and 107.0 ± 62.9 ng/mL
[6]; ref 22 (Desta et al.)
  LETRO mean plasma concentration (range): 89.7 (28.4–349.2) ng/mL
[7]
  LETRO plasma concentration associated with longer time to tumour progression: ≥ 85.6 ng/mL
